Source: patent US4565811A, “Sodium salt of ursodeoxycholic sulphate” (Istituto Biologico Chemioterapico "ABC" S.p.A., priority 1983, dated 1986)
Read-outs that look alike come from different tables or passages of the source.

Key:
[1] = tested on: hyperdislipidemia caused by Triton WR-1339 in the rat; experiment: Action on the hyperdislipidemia caused by Triton WR-1339 in the rat; format: in vivo, Albinus rats (Witar); details: for Alfa-Lipoproteins: Increase towards Group 2 / Beta-Lipoproteins: Inhibition towards Group 2 / Beta/alfa ratio: Inhibition towards Group 2 / Total cholesterol: Inhibition in comparison with Group 2 / Total lipids: Inhibition in comparison with Group 2 / Triglycerids: Inhibition in comparison with Group 2: vs Group 2 (Triton control)
Description: Action on the hyperdislipidemia caused by Triton WR-1339 in the rat
Albinus rats (Witar) of 300-320 g each, having been fed only with water "ad libitum" for 12 hours, were treated with US and UA, by oral route, 4 hours before and 15 hours after the administration intraperitenously of Triton WR-1339 at the dosage of 300 mg/kg in 10 ml/kg of physiologic solution at 0.9%.
US and UA dosages were 25, 50 and 100 mg/kg respectively and the rats were divided in the following groups of 10 animals each.
Group 1: Controls treated with 10 ml/kg of physiological solution at 0.9% orally.
Group 2: Controls treated with 300 mg/kg of Triton WR-1339 i.p. and 10 ml/kg of carboxy methyl cellulose (CMC) at 0.5%.
Group 3, 4 and 5: UA at 25, 50 and 100 mg/kg respectively suspended in 10 ml/kg of CMC at 0.5%.
Groups 6, 7 and 8: US at 25, 50 and 100 mg/kg respectively dissolved in 10 ml/kg of physiologic solution.
The following Tables 1 and 2 list the results of blood-tests from addominal aorta of rats sacrificed 5 hours after the last treatment: […]

[2] = known compounds; cited from earlier work
[3] = cited from earlier work
[4] = Solubility in water / acidity; format: physicochemical
[5] = 25 mg/kg os, Triton WR-1339 rat
[6] = 50 mg/kg os, Triton WR-1339 rat
[7] = 100 mg/kg os, Triton WR-1339 rat

In the case of `C[C@H](CCC(=O)O)[C@H]1CC[C@H]2[C@@H]3[C@@H](O)C[C@@H]4C[C@H](O)CC[C@]4(C)[C@H]3CC[C@]12C` [UA, ursodeoxycholic acid, reference compound], the “Alfa-Lipoproteins Average ± SD” value [1, 5] is reported as 27,6 ± 9,8 mg/100 ml serum, the “Beta-Lipoproteins Average ± SD” value [1, 5] is reported as 221,17 ± 38,4 mg/100 ml serum and the “Beta/alfa ratio Average ± SD” value [1, 5] is reported as 8,95 ± 3,5 mg/100 ml serum. The “Total cholesterol Average ± SD” value [1, 5] was 244,8 ± 34,5 mg/100 ml serum, the “Total lipids Average ± SD” value [1, 5] was 3011,4 ± 513,6 mg/100 ml serum and the “Triglycerids Average ± SD” value [1, 5] was 1167,14 ± 180,5 mg/100 ml serum. For the same compound, the “Alfa-Lipoproteins: Increase towards Group 2” value ([1]; 25 mg/kg os) was “+23,2%”, the “Beta-Lipoproteins: Inhibition towards Group 2” value ([1]; 25 mg/kg os) was -19,1% and the “Beta/alfa ratio: Inhibition towards Group 2” value ([1]; 25 mg/kg os) was -28,2%. The “Total cholesterol: Inhibition in comparison with Group 2” value (shortened to “Total cholesterol: Inhibition”) ([1]; 25 mg/kg os) was -15,9%, the “Total lipids: Inhibition in comparison with Group 2” value (“Total lipids: Inhibition” for short) ([1]; 25 mg/kg os) was -21,1% and the “Triglycerids: Inhibition in comparison with Group 2” value (shortened to “Triglycerids: Inhibition”) ([1]; 25 mg/kg os) was -11,0%. For the same compound, the “Alfa-Lipoproteins Average ± SD” value [1, 6] was 41,7 ± 11,3 mg/100 ml serum, the “Beta-Lipoproteins Average ± SD” value [1, 6] was 133,7 ± 60,4 mg/100 ml serum and the “Beta/alfa ratio Average ± SD” value [1, 6] was 3,88 ± 1,73 mg/100 ml serum. For the same compound, the “Total cholesterol Average ± SD” value [1, 6] was 175,47 ± 54,26 mg/100 ml serum, the “Total lipids Average ± SD” value [1, 6] was 2517,3 ± 557,6 mg/100 ml serum and the “Triglycerids Average ± SD” value [1, 6] was 893,6 ± 298,1 mg/100 ml serum. The “Alfa-Lipoproteins: Increase towards Group 2” value ([1]; 50 mg/kg os) was “+86,1%”, the “Beta-Lipoproteins: Inhibition towards Group 2” value ([1]; 50 mg/kg os) was -51,2% and the “Beta/alfa ratio: Inhibition towards Group 2” value ([1]; 50 mg/kg os) was -68,8%. For the same compound, the “Total cholesterol: Inhibition” value ([1]; 50 mg/kg os) was -40,7%, the “Total lipids: Inhibition” value ([1]; 50 mg/kg os) was -34,1% and the “Triglycerids: Inhibition” value ([1]; 50 mg/kg os) was -31,9%. The “Alfa-Lipoproteins Average ± SD” value [1, 7] was 39,64 ± 11,4 mg/100 ml serum, the “Beta-Lipoproteins Average ± SD” value [1, 7] was 115,5 ± 58,7 mg/100 ml serum and the “Beta/alfa ratio Average ± SD” value [1, 7] was 3,41 ± 2,29 mg/100 ml serum. The “Total cholesterol Average ± SD” value [1, 7] was 155,2 ± 50,3 mg/100 ml serum, the “Total lipids Average ± SD” value [1, 7] was 2241,14 ± 517,4 mg/100 ml serum and the “Triglycerids Average ± SD” value [1, 7] was 628,8 ± 223,0 mg/100 ml serum. The “Alfa-Lipoproteins: Increase towards Group 2” value ([1]; 100 mg/kg os) was “+76,8%”, the “Beta/alfa ratio: Inhibition towards Group 2” value ([1]; 100 mg/kg os) was -72,6% and the “Total cholesterol: Inhibition” value ([1]; 100 mg/kg os) was -47,6%. The “Total lipids: Inhibition” value ([1]; 100 mg/kg os) was -41,3%, the “Triglycerids: Inhibition” value ([1]; 100 mg/kg os) was -52,1% and the “Dose dependence of activity inhibiting the hyperdislipidemia” value ([1]; 25, 50 and 100 mg/kg oral, Triton WR-1339 rat) was “depends on the dosage”. For the same compound, the Solubility in water [2] was “pratically insoluble in water”, the “Effect on cholesterol stones” value ([3]; bile saturated with cholesterol) was “prevents the formation of cholesterol stones” and the “Dissolution of radiotransparent stones” value ([3]; under suitable conditions) was “able to dissolve under suitable conditions the radiotransparent stones”.

In the case of `CC(CCC(=O)O)C1CCC2C3C(OS(=O)(=O)O)CC4CC(OS(=O)(=O)O)CCC4(C)C3CCC12C` (stereo not drawn) [ursodeoxycholic O-sulphate], the Acidity ([4]; free acid) is reported as “very high acidity”, the Solubility in water [4] is reported as “very soluble in water” and the Solubility in water ([4]; listed as ursosulphate acid) is reported as “very soluble in water with acid reaction”.
